One data set addresses T1, human EDG-4 (Homo sapiens, UniProt O95136, F273L/I205V).
T1 construct: a 1059 bp open reading frame (excluding the stop codon) corresponding to the complete human edg-4 coding region; expressed in transfected cells; host or cells: 293-EBNA
Put plainly: Relative potency and efficacy of agonists, luciferase (SRE) reporter in 293-EBNA cells expressing recombinant human EDG-4. The note with it: for Rank (EMax): rank of efficacy. It is filed as cell-based. As to the method:
(§1) Transfection of EDG-4, expression, pretreatment and treatment of 293-EBNA cells expressing recombinant human EDG-4 was carried out essentially as described in “Example 11. […] Results were tabulated in Microsoft Excel, and analyzed with GraphPad Prism sotfware. […] The luciferase response was expressed as fold response, after subtracting any endogenous response in pcDNA3-transfected cells at a given concentration of compound.

A further data set concerns 293-EBNA cells. It is filed as cell-based. How it is done: as §1
The test system of data set [1] is HeLa cells. Put plainly: IL-8 response (IL-8 ELISA) in HeLa cells. The class given is cell-based, human. How it is done:
• Cells: HeLa (adenocarcinoma, human) • Media: DMEM/F12+10% FBS Adherent • 1) Cells were seeded at 0.2×10^6 cells/well in 6-well plates. • 2) Confluency of cells after 24–32 hrs was between 60–70%. B. Overnight Serum-Starvation • 1) Media was aspirated (no PBS wash). • 2) 1.5 ml 0.5% FBS media was added to each well. C. Treatments and Collection • 1) Made up all required solutions in 0.5% FBS media (control). Handling of […] for use in NF-κB experiments requires that sonication, commonly used to resuspend LPA, not be done; NF-κB may be activated by lipid peroxides created through vigorous frothing. Solutions:
D. Detection of Interleukin-8 (IL-8) using an IL-8 ELISA (Enzyme-Linked ImmunoSorbent Assay). • 1) The Quantikine Human IL-8 Immuno Assay Kit was obtained from R&D Systems (Cat. D8050). • 2) The kit and all samples were allowed to equlibrate to room temperature prior to use. • 3) All reagents were provided in the kit and prepared according to the instructions provided. • 4) The assay procedure was followed as recommended in the kit for cell culture supernatant samples. • 5) ELISA was performed on 50 μl samples of culture supernatant and duplicate samples were measured for each well. Each treatment was performed on triplicate wells. • 6) Plates were read on UV max kinetic microplate reader (Molecular Devices), set to 450 nm and correction set to 575 nm, using Wsoftmax sotware version 2.34.
• 1) Cells were seeded at 2.5×10^4 cells/well in 24-well plates. • 2) Confluency of cells after 24–32 hrs was between 60–70%. B. Overnight Serum-Starvation and PTX Pre-Treatment • 1) Media was aspirated (no PBS wash). • 2) 0.5 ml 0.5% FBS media was added to all wells not requiring PTX pre-treatment. • 3) For well requiring PTX; 0.5 ml 0.5% FBS media containing 50 ng/ml PTX (1 volume PTX (RBI Cat. P140): 1 volume DTT, incubate 37° C. for 30 minutes then dilute to 50 ng/ml) was added. C. Treatments and Collection • 1) Made up all required solutions in 0.5% FBS media (control). […] D. Refer to Procedure #1 For HeLa Cells (D).
A general note: An ELISA detects its analyte on a solid surface through an enzyme-linked reagent.

In data set [2] the test system is HeLa cells. Put plainly: Cytotoxicity (viable cell count at 24 hr) in HeLa cells. To be noted: NDGA 40 μM.
Description: For this purpose, an experiment was conducted to measure cytotoxicity in parallel with IL-8 response.
Data set [3] deals with Human Umbilical Vein Endothelial Cells (HUVEC). Put plainly: IL-8 response in primary cultured HUVEC. It is filed as cell-based. The note with it: 5 μM, 6 hr. As to the method: Cells: HUVEC (Clonetics, Cat. CC-2519) were passaged according to supplier's instructions and used at passage 3. Cells were plated at 20,000 cells/well into 24-well plates. […] LPA induced a 3-fold IL-8 increase at this concentration. […] As shown below in FIG. 23, three cloned edge receptors respond to LPA as an agonist, and all three appear to transduce NF-κB activation in an agonist-dependent manner.

Another data set addresses rat EDG-4 (Rattus norvegicus, UniProt P47752). Put plainly: NF-κB-tk-p4Luc luciferase reporter in 293-EBNA cells, rat EDG-4. The class given is cell-based. Set-up: transient transfection with a eukaryotic expression vector expressing full-length rat edg-4 cDNA; expressed in transfected cells; host or cells: 293-EBNA. To be noted: Assay 1; 24 hrs. In general terms: Reporter assays use an easily measured gene product as a stand-in for the process of interest.

A further data set concerns HL-60 cells. Put plainly: IL-8 response in HL-60 cells. The class given is cell-based, human. To be noted: 1, 6 or 24 hours, S1P or LPA up to 3 μM, TNF-α 10 ng/ml.
The mark [4] stands for this setting: S1P 1 μM, NDGA 40 or 10 μM, NAC 30 mM, 30 minute pre-treatment.

T1 sequence (O95136 whole entry I205V/F273L): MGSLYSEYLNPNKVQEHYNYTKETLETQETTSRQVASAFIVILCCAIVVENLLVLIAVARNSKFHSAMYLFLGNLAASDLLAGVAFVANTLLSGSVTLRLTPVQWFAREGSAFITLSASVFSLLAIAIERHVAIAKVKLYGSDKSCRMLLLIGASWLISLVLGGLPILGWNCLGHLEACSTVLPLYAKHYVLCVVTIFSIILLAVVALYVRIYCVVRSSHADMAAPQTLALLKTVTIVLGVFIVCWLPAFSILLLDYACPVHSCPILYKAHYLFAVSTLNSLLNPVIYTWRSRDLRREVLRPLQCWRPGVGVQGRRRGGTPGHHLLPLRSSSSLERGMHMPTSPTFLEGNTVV
rat EDG-4, sequence (P47752 whole entry): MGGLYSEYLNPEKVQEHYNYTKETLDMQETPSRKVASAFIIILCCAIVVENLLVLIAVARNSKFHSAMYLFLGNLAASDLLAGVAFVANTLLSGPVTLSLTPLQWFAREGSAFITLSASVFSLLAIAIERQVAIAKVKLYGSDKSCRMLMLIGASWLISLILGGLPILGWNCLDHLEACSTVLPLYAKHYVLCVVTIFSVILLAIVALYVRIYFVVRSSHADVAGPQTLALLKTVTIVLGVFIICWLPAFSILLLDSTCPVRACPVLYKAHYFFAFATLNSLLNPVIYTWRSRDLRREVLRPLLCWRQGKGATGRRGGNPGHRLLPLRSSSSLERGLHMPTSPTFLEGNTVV
Excerpt for rat EDG-4: First, the NF-κB response element was reconstructed in a new reporter construct (p4Luc) suitable for stable maintenance as an episome in primate cells. […] The p4-Luc reporter used the backbone of pREP4 (Invitrogen; Cat. V004-50), which contains the EBV orgin of replicaiton (EBVoni), as well as the EBNA-1 viral antigen required to maintain EBVoti containing plasmids as stable episoms in primate cells, and a prokayotic selection marker. A dominant eukaryotic selection marker for zeocin resistance was substituted for expression in pREP4. The promoter of pREP4 was then excised and replaced with a multi-cloning site for introduction of promoter/enhancer inserts. The NF-κB inser of the previous CAT reporter was subcloned into this site and all cloning junctions were sequenced to verify the structure of the plasmid, called NF-κB-tk-p4Luc.
• 1) 150 mm plates of 293-EBNA obtained from Invitrogen (Cat. R620-07) with a confluency of 18 80% were used for transfection. • 2) 6.6 μg NF-κB-tk-p4Luc reporter DNA and 6.6 μg of pC3-redg4 (expressing rat EDG-4), or pcDNA3 DNA was diluted in 500 μl OPTI-MEM (Gibco; Cat. 31985-062) • 3) 96.8 μl Lipofectamine (Gibco; Cat. 18324-020) was diluted in 500 μl of OPTI-MEM. • 4) The 2 solutions were mixed gently and the tube was incubated for 30 min at room temperature. • 5) The 293-EBNA plates were washed once with PBS and 13 ml OPTI-MEM was added to each plate, • 6) 6 ml OPTI-UMM was added to each transfection tube and this was added to a plate of 293EBNA cells. The plates were left for 4 hrs at 37° C. in a 5% CO2 incubator. • 7) After 4 his, the media was removed and replaced with frest 10% FBS media. Day 2: • 1) Transfected cells were washed, typsinized with 1× tryspin, resuspended in 10 ml media and counted. • 2) 0.02×10 ^6 cells were plated per well of a 96-well Blackview plate coated with polyD-lysine. No cells were plated in the outside wells of the 96-well plate. Two 96-well plates were seeded for each transfection. Day 3: • 1) Cells were washed with PBS and 140 μl serum-free media (SFM) added to each well. Plates were incubated in 37° C. incubator for 6 hrs. • 2) After 6 hrs, media was removed and cells treated with compounds diluted in 0.5% FBS media (140 μl added to each well).
Day 4 Luciferase Assay • 1) Luclite kit (Packard; Cat. 6016911) was used for luciferase assay. All reagents were brought to room temperature before use. • 2) Supernatant was transferred to a new 96-well plate and stored at −20 C. for rupture IL-8 measurement. • 3) 50 μl 0.5 M HEPES pH 7.8 buffer (1 mM MgCl21 mM CaCl2) was addeded to all wells of 96-well plate. Black adhesive backing (polyfitronics) was aligned to the bottom of the viewplate. • 4) Luclite substrate was made up by adding 10 ml substate diluent to 1 vial lyophilized substrate. Reconstituted substrate was kept under a dark container. 50 μl substrate was added to each well. • 5) A clear adhesive plate sealer was adjusted on to the viewplate and sealer rubbed over the plate with a Kimwipe. The plate was shaken on a plate shaker at 500 rpm for 5 seconds right side up and then upside down. A stop plate was placed on top of the blackview plate to keep it in the dark. • 6) Plates were incubated at room temperature for 30 min. • 7) After incubation, plates were counted in a 12 detector Packard Top Count on a program without dark delay.

As for `CCCCCCCCCCCCCCC[C@@H](O)[C@@H](N)COP(=O)(O)O` [Dihydro-S1P, dihydrosphingosine 1-phosphate], at human EDG-4, the “agonist character at EDG-4” value is listed as “partial agonist” and the “Rank (EMax)” value is 3. On to `CCCCCCCCCCCCC/C=C/[C@@H](O)C(N)CO[C@@H]1O[C@H](CO)[C@@H](O)[C@H](O)[C@@H]1O` (stereo partly shown) [Glucospychosin, glucopsychosine], for which, in the data set on 293-EBNA cells, the “concentration at which cytotoxicity was seen” value was “^aCytotoxicity was seen at 10 μM or higher concentrations, preventing quantitative determination of EC50 or EMax”. Besides, at human EDG-4, the “agonist character at EDG-4” value was “poor potency and efficacy”; the “Rank (EMax)” value was found to be 4. As for `CC(=O)N[C@@H](CS)C(=O)O` [NAC], the “inhibition of IL-8 response to S1P” value in the data set with HeLa cells [1] (setting [4]) is on record as “significantly inhibited”. As for `CC(Cc1ccc(O)c(O)c1)C(C)Cc1ccc(O)c(O)c1` (stereo not shown) [NDGA], the “inhibition of IL-8 response to S1P” value in the data set on HeLa cells [1] (S1P 1 μM, NDGA 40 μM) is recorded as “completely inhibited”; in the data set on HeLa cells [1] (setting [4]) it was “significantly inhibited”. The toxicity result with HeLa cells [2] is listed as “some toxicity”. Turning to `CCCCCCCCCCCCC/C=C/[C@@H](O)[C@@H](N)CO[C@@H]1O[C@H](CO)[C@H](O)[C@H](O)[C@H]1O` [Psychosine, psychosine], in the data set with 293-EBNA cells, the “concentration at which cytotoxicity was seen” value is reported as “^aCytotoxicity was seen at 10 μM or higher concentrations, preventing quantitative determination of EC50 or EMax”. The “IL-8 levels, increase over untreated controls” value in data set [3] is listed as “Marginal increases”. Moreover, on human EDG-4, the “agonist character at EDG-4” value was “poor potency and efficacy”; the “Rank (EMax)” value is 5.

With `Cc1ccc(C(=O)Nc2ccc(S(=O)(=O)O)c3cc(S(=O)(=O)O)cc(S(=O)(=O)O)c23)cc1NC(=O)c1cccc(NC(=O)Nc2cccc(C(=O)Nc3cc(C(=O)Nc4ccc(S(=O)(=O)O)c5cc(S(=O)(=O)O)cc(S(=O)(=O)O)c45)ccc3C)c2)c1` [Suramin], in the data set on HeLa cells [1] (ET-18-OCH3 3 μM, PTX 50 ng/ml or suramin 1 mg/ml), the “inhibition of IL-8 response to edelfosine” value is on record as “potently inhibited”. In addition, the “effect on IL-8 response to S1P” value in the data set with HeLa cells [1] (S1P 1 μM, suramin 1 mg/ml, 30 minute pre-treatment) is on record as “extremely effective in blunting the IL-8 response to S1P”. With `CCCCCCCCCCCCCC(=O)O[C@@H]1[C@@H](C)[C@@]2(O)[C@@H](C=C(CO)C[C@]3(O)C(=O)C(C)=C[C@@H]23)[C@H]2C(C)(C)[C@]12OC(C)=O` [TPA], the “induction of NF-κB reporter” value on rat EDG-4 is given as “strongly induced”. For the compound `CCCCC/C=C\C/C=C\C/C=C\C/C=C\CCCC(=O)NCCO` [anandamide], the “IL-8 levels, increase over untreated controls” value in data set [3] is “no responses”. For `CCCCCCCCCCCCC/C=C/[C@@H](O)[C@@H](N)CO` [sphingosine], the IL-8 induction entry in the data set with HeLa cells [1] (6 hours, concentration series) is “lack of response”. With TNF-α, the IL-8 release entry with HL-60 cells is listed as “capable of responding at 6 or 24 hr”.
